PMC10395314 (RSC Advances, 2023)

Assays:
HepG2 cells [1] = assay: Wound healing; type: cell-based, human
Vero cells = assay: Safety assay on non-cancerous Vero cells; type: cell-based
caspase-9 = assay: Caspase-9 level in HepG2 cells; type: cell-based, human
HepG2 cells [2] = assay: Apoptosis assay, Annexin V-FITC/PI flow cytometry; type: cell-based, human
VEGFR-2 [3] = target: VEGFR-2 (Homo sapiens, UniProt P35968); assay: In vitro VEGFR-2 inhibition; type: biochemical
caspase-3 = assay: Caspase-3 level in HepG2 cells; type: cell-based, human
VEGFR-2 [4] = assay: MM-GBSA binding free energy and decomposition; conditions: 15a versus sorafenib
HepG2 = assay: MTT anti-proliferative assay on HepG2; conditions: Homo sapiens, HepG2, read-out: In vitro cytotoxicity IC50 HepG2
MCF-7 = assay: MTT anti-proliferative assay on MCF-7; conditions: Homo sapiens, MCF7, read-out: In vitro cytotoxicity IC50 MCF-7
[5] = HepG2, 0.76 μM, control HepG2 = 1

VEGFR-2 (Homo sapiens, UniProt P35968), sequence (P35968 20-1356): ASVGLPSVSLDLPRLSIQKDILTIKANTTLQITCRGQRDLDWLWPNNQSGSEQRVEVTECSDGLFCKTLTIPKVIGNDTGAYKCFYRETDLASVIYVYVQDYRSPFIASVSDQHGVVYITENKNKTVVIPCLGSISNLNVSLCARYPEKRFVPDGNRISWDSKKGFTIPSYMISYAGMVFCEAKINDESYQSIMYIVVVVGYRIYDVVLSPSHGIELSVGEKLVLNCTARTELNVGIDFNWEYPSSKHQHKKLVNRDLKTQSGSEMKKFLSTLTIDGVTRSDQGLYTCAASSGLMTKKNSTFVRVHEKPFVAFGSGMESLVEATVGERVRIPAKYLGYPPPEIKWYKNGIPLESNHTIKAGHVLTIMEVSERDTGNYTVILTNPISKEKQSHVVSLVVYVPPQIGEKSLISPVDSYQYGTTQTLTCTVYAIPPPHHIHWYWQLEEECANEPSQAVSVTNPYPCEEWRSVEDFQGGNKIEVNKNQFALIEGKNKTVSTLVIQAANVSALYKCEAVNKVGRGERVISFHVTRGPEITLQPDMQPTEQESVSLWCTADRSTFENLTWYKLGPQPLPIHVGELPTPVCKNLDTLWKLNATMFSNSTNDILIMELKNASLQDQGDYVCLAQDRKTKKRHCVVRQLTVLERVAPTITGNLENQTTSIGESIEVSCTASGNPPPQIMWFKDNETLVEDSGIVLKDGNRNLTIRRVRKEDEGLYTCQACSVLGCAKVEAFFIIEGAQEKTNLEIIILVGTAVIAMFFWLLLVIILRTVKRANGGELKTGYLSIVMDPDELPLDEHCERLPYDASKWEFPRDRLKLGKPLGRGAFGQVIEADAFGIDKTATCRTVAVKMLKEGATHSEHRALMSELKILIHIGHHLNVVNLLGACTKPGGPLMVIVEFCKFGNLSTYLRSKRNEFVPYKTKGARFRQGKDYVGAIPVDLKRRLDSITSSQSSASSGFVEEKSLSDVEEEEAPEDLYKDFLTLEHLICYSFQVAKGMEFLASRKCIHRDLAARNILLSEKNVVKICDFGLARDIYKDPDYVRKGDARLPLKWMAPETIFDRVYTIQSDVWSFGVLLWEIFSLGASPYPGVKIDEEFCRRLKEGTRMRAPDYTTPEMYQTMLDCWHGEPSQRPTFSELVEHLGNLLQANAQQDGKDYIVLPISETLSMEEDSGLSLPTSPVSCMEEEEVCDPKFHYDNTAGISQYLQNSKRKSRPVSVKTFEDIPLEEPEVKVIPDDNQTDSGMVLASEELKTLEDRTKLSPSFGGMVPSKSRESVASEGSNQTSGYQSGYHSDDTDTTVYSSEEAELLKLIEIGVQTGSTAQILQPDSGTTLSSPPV

For `CC(=NNC(=O)c1cccc(Br)c1)c1ccc(NC(=O)Cn2c(=O)c3c(ncn3C)n(C)c2=O)cc1` [Compound 15a, N-(4-(1-(2-(3-Bromobenzoyl)hydrazono)ethyl)phenyl)-2-(3,7-dimethyl-2,6-dioxo-2,3,6,7-tetrahydro-1H-purin-1-yl)acetamide], the “decrease of scratch width” value (HepG2 cells [1]; HepG2, within 48 hours, untreated 65.9%) was 34.17%, the “At 0 h Area” value (HepG2 cells [1]; HepG2 scratch, 0 h) was 1000.667 and the “At 0 h Width” value (HepG2 cells [1]; HepG2 scratch, 0 h) was 999.7462. The “At 48 h Width” value (HepG2 cells [1]; HepG2 scratch, 48 h, control 339.5385) was 657.7792, the “At 48 h Area” value (HepG2 cells [1]; HepG2 scratch, 48 h, control 340.5) was 658.6667 and the RM (HepG2 cells [1]; HepG2 scratch, after 48 hours, control 13.74681) was 7.124 μm. The Wound closure (HepG2 cells [1]; HepG2 scratch, after 48 hours, control 65.96135) was 34.18 % μm^2, the IC50 (Vero cells; Chlorocebus sabaeus, Vero, read-out: IC50 against Vero cells) was 75200 nM and the “selectivity index against HepG2” value (Vero cells; based on Vero IC50 versus HepG2 IC50) was 98.97. For the same compound, the “selectivity index against MCF7” value (Vero cells; based on Vero IC50 versus MCF-7 IC50) was 69.64, the “increase of caspase-9 level compared to control” value (caspase-9; HepG2, 0.76 μM (IC50 value)) was 2.37 fold and the “Protein expression Caspase-9” value (caspase-9; [5]) was 2.378. For the same compound, the “Apoptosis Late” value (HepG2 cells [2]; HepG2, 0.76 µM for 72 h, control 0.13) was 12.17, the “Apoptosis Early” value (HepG2 cells [2]; HepG2, 0.76 µM for 72 h, control 0.71) was 9.63 and the Necrosis (HepG2 cells [2]; HepG2, 0.76 µM for 72 h, control 2.22) was 7.69. For the same compound, the “Apoptosis Total” value (HepG2 cells [2]; HepG2, 0.76 µM for 72 h, control 3.06) was 29.49, the “proportion of HepG2 cells in late-stage apoptosis” value (HepG2 cells [2]; HepG2, from 0.71% in control) was 9.63% and the “proportion of HepG2 cells in early-stage apoptosis” value (HepG2 cells [2]; HepG2, from 3.06% in control) was 29.49%. For the same compound, the IC50 (VEGFR-2 [3]) was 239 nM, the “increase of caspase-3 level compared to control” value (caspase-3; HepG2, 0.76 μM (IC50 value)) was 3.45 fold and the “Protein expression Caspase-3” value (caspase-3; [5]) was 3.451. The “MM-GBSA binding energy smaller than that of the reference compound by” value (VEGFR-2 [4]) was 8.5 kcal/mol, the IC50 (HepG2) was 760 ± 10 nM and the IC50 (MCF-7) was 1080 ± 20 nM.
`CC(=NNC(=O)c1ccccc1Cl)c1ccc(NC(=O)Cn2c(=O)c3c(ncn3C)n(C)c2=O)cc1` [Compound 15b, N-(4-(1-(2-(2-Chlorobenzoyl)hydrazono)ethyl)phenyl)-2-(3,7-dimethyl-2,6-dioxo-2,3,6,7-tetrahydro-1H-purin-1-yl)acetamide] was tested, and the IC50 (HepG2) was 780 ± 20 nM and the IC50 (MCF-7) was 650 ± 10 nM.
Compound `CC(=NNC(=O)c1cccc(Cl)c1)c1cccc(NC(=O)Cn2c(=O)c3c(ncn3C)n(C)c2=O)c1` [Compound 16, N-(3-(1-(2-(3-Chlorobenzoyl)hydrazono)ethyl)phenyl)-2-(3,7-dimethyl-2,6-dioxo-2,3,6,7-tetrahydro-1H-purin-1-yl)acetamide] has an IC50 (HepG2) of 1230 ± 30 nM and an IC50 (MCF-7) of 2470 ± 40 nM.
`CC(=NNC(=O)c1cccnc1)c1ccc(NC(=O)Cn2c(=O)c3c(ncn3C)n(C)c2=O)cc1` [Compound 17, 2-(3,7-Dimethyl-2,6-dioxo-2,3,6,7-tetrahydro-1H-purin-1-yl)-N-(4-(1-(2-nicotinoylhydrazono)ethyl)phenyl)acetamide] was tested, and the IC50 (HepG2) was 1050 ± 10 nM and the IC50 (MCF-7) was 800 ± 10 nM.
`CNC(=O)c1cc(Oc2ccc(NC(=O)Nc3ccc(Cl)c(C(F)(F)F)c3)cc2)ccn1` [Sorafenib, reference compound] gave an IC50 (HepG2) of 2240 ± 60 nM and an IC50 (MCF-7) of 3170 ± 10 nM.
